“Also recorded” adds a separate entry of the source.
Columns and labels:
advanced solid tumors = test: Efficacy in patients (RECIST v1.1, Kaplan-Meier survival); assay type: in vivo, human
Source text: The primary objective of the escalation phase was to determine the recommended phase 2 dose (RP2D) for DT2216. The secondary objectives were to characterize the adverse event (AE) profile, determine the pharmacokinetic profile (PK)/pharmacodynamic profile (PD) and describe preliminary evidence of efficacy using objective response rate (ORR), disease control rate (DCR), and progression-free survival (PFS) based on Response Evaluation Criteria in Solid Tumors (RECIST) v1.1. Exploratory objectives were to characterize the baseline and on-treatment expression of BCL-XL and VHL on blood lymphocytes, as well as other circulating biomarkers. Exploratory objectives included characterizing the baseline and on-treatment changes in platelet count and correlating them with DT2216 drug levels.
Patients were allowed a maximum of two intra-patient dose escalations. Patients received DT2216 by intravenous infusion on days 1 and 4 weekly for at least 4 weeks, with each cycle consisting of a 28-day cycle for a maximum duration of 1 year until disease progression, unacceptable toxicity, or other withdrawal criteria, as listed in the protocol. The extent of disease was evaluated using imaging studies and disease-appropriate tumor markers every 8 weeks from day 1 of the first cycle. RP2D was established based on MTD as well as other relevant data, including clinical signals of activity, PK, and PD data.
(§1) Premedication prior to each infusion was at the discretion of the investigator or according to institutional guidelines. Patient assessment and follow-up procedures can be found in the schedule of assessments in this study. The clinical response was evaluated using RECIST v1.1 per protocol. Blood samples were collected for PK analysis before and after post-infusion at defined intervals, along with platelet counts. Exploratory biomarkers include (but are not limited to) the assessment of BCL-XL and VHL levels in peripheral white blood cells (WBC).
Descriptive statistics were used to display dose escalation data and results. Continuous variables, including baseline characteristics, will be summarized by reporting the number of observations, mean, standard deviation, median, minimum, and maximum values. Categorical/discrete variables will be summarized using frequency tables that show the number and percentage of subjects within a category. Time-to-event analysis was performed using the Kaplan–Meier method. The overall response rate (ORR) and its 2-sided 95% confidence interval (CI) were calculated using the Clopper-Pearson method.

VHL = target: T1, VHL (Homo sapiens, UniProt P40337); test: VHL expression in peripheral white blood cells of patients; assay type: in vivo; conditions: 0.4 mg/kg IV, 4 patients, after C1D1
T1 construct: assessment of BCL-XL and VHL levels in peripheral white blood cells (WBC); endogenous in cells; host or cells: peripheral white blood cells of trial patients
T1 sequence (P40337 whole entry): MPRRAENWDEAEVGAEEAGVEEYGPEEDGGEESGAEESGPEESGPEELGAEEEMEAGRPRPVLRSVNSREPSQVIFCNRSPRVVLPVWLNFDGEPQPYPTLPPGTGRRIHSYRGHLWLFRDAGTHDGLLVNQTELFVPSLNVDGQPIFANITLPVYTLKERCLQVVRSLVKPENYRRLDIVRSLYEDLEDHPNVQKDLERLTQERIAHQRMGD
Protocol: as §1
Fig. 6 Changes in BCL-XL and VHL expression after infusion of DT2216 at 0.4 mg/kg in 4 patients. […] Right panel depicts fold changes in VHL expression in the same patients after infusion of DT2216.

BCL-XL = target: T2, BCL-XL (Homo sapiens, UniProt Q07817); test: BCL-XL levels in WBCs from a normal human donor after incubation with DT2216; assay type: cell-based; conditions: increasing concentrations, approximately 16 hours incubation, beta actin control
T2 construct: endogenous in cells; host or cells: peripheral leukocytes (WBC) of trial patients
T2 sequence (Q07817 whole entry): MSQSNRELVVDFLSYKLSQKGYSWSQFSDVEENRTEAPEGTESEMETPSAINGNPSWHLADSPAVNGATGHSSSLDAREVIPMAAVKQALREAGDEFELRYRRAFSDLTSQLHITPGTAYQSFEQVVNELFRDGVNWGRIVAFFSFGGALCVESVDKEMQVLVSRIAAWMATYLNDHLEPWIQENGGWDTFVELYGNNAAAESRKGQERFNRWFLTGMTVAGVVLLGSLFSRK
Protocol: Fig. 5 Levels of BCL-XL in WBCs from a normal human donor. They were determined after incubation with increasing concentrations of DT2216 as depicted in the figure for approximately 16 hours. […] BCL-XL expression after incubation with DT2216 in comparison to beta actin which acts as control in the figure

H146 cells (SCLC) = test: In vitro IC90, H146 cells; assay type: cell-based; conditions: Homo sapiens, NCI-H146, DT2216 alone
Protocol: (§2) Fig. 7 Mean Plasma concentration of DT2216 in 4 patients infused with DT2216 at 0.4 mg/kg over time against in vitro inhibitory concentration 90%(IC90) for various cell lines. SCLC – small cell lung cancer; OC- ovarian carcinoma; T-ALL – T cell acute lymphoblastic leukemia, CTCL – Cutaneous T cell lymphoma TEXT PRINTED IN THE PICTURE: DT2216: IC90 (≈ 1000 nM) for H146 cells (SCLC); IC90 (< 1000 nM) for OVCAR4 cells (OC); IC90 (≈ 500 nM) for MOLT-4 cells (T-ALL); IC90 (< 100 nM) for OVCAR4 cells (OC)* (*In combination with Carboplatin); IC90 (≈ 100 nM) for H146 cells (SCLC)** (**In combination with SN-38/irinotecan); IC90 (30 nM) for Myla cells (CTCL)

Myla cells (CTCL) = test: In vitro IC90, Myla cells; assay type: cell-based
Protocol: as §2

[1] = Cohort 1 (0.04 mg/kg), 1 treated
[2] = Cohort 2 (0.08 mg/kg), 1 treated
[3] = Cohort 3 (0.12 mg/kg), 1 treated
[4] = Cohort 4 (0.24 mg/kg), 7 treated
[5] = Cohort 5 (0.32 mg/kg), 6 treated
[6] = Cohort 6 (0.40 mg/kg), 4 treated

Cc1ncsc1-c1ccc([C@H](C)NC(=O)[C@@H]2C[C@@H](O)CN2C(=O)[C@@H](NC(=O)CCCCCC(=O)N2CCN(CC[C@H](CSc3ccccc3)Nc3ccc(S(=O)(=O)NC(=O)c4ccc(N5CCN(CC6=C(c7ccc(Cl)cc7)CCC(C)(C)C6)CC5)cc4)cc3S(=O)(=O)C(F)(F)F)CC2)C(C)(C)C)cc1 [DT2216]
patients who discontinued treatment because of objective disease progression (advanced solid tumors; 15/20 patients): 75% | stable disease (best response per RECIST v1.1), share of patients (advanced solid tumors; 20 patients, 0.04 to 0.4 mg/kg IV BIW): 20% | Treatment discontinuation: Clinical progression of neoplastic disease (subjects) (advanced solid tumors; [1]): 1 | Treatment discontinuation: Objective progression of neoplastic disease (subjects) (advanced solid tumors; [1]): 0 | Treatment discontinuation: Clinical progression of neoplastic disease (subjects) (advanced solid tumors; [2]): 0 | Treatment discontinuation: Objective progression of neoplastic disease (subjects) (advanced solid tumors; [2]): 1 | Treatment discontinuation: Clinical progression of neoplastic disease (subjects) (advanced solid tumors; [3]): 0 | Treatment discontinuation: Objective progression of neoplastic disease (subjects) (advanced solid tumors; [3]): 1 | Treatment discontinuation: Clinical progression of neoplastic disease (subjects) (advanced solid tumors; [4]): 2 | Treatment discontinuation: Objective progression of neoplastic disease (subjects) (advanced solid tumors; [4]): 4 | Treatment discontinuation: Clinical progression of neoplastic disease (subjects) (advanced solid tumors; [5]): 1 | Treatment discontinuation: Objective progression of neoplastic disease (subjects) (advanced solid tumors; [5]): 5 | Treatment discontinuation: Clinical progression of neoplastic disease (subjects) (advanced solid tumors; [6]): 0 | Treatment discontinuation: Objective progression of neoplastic disease (subjects) (advanced solid tumors; [6]): 4 | median overall survival (advanced solid tumors; Kaplan–Meier, 95% CI 4.0 – NE): 7.9 months | Treatment discontinuation: Clinical progression of neoplastic disease (subjects) (advanced solid tumors; Total, 20 treated): 4 | Treatment discontinuation: Objective progression of neoplastic disease (subjects) (advanced solid tumors; Total, 20 treated): 15 | median duration of response (stable disease) (advanced solid tumors; human, in vivo): 107 days | target liver lesions versus baseline (advanced solid tumors; one person, non-small cell lung adenocarcinoma, 0.24 mg/kg, after C4): decrease in size of target liver lesions | single-agent activity (advanced solid tumors; patients with different advanced solid tumors): did not demonstrate single-agent activity | VHL expression in peripheral WBCs (VHL): did not demonstrate a simultaneous drop | BCL-XL levels in normal human donor WBCs (BCL-XL): capable of completely degrading BCL-XL; also recorded: dose dependent degradation | IC90 (H146 cells (SCLC)): ~1 µM | IC90 (Myla cells (CTCL)): 0.03 µM
